According to patent publication US20230203041A1, “ANTAGONISTS OF THE ADENOSINE A2A RECEPTOR” (AdoRx Therapeutics Limited, priority 2020, published 2023):

Key:
[1] = target: T1, human Adenosine A2a receptor (Homo sapiens, UniProt P29274); test: Adenosine receptor TR-FRET binding assay (CA200645 displacement), A2a; settings: 100 nM CA200645, CHO cell membranes, 2 hours at room temperature
T1 construct: expressed in transfected cells; host or cells: CHO cell membranes

[2] = target: T2, human Adenosine A2b receptor (Homo sapiens, UniProt P29275); test: Adenosine receptor TR-FRET binding assay (CA200645 displacement), A2b; settings: 30 nM CA200645, CHO cell membranes, 2 hours at room temperature
T2 construct: expressed in transfected cells; host or cells: CHO cell membranes
T2 sequence (P29275 1-332): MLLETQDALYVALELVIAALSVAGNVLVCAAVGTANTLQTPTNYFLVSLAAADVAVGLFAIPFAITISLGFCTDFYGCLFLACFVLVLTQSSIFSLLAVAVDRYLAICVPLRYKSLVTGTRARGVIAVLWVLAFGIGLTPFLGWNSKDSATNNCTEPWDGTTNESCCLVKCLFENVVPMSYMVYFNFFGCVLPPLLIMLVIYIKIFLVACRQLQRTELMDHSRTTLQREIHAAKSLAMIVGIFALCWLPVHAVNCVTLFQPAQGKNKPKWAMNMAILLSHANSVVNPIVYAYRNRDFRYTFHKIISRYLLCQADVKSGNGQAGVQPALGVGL
Protocol: All FRET binding experiments were conducted at room temperature in white 384-well plates, in assay binding buffer containing 1×LabMed (Cisbio, France), 100 μg/mL saponin, 1% DMSO and 0.02% pluronic acid. Binding of the fluorescently labelled Adenosine receptor antagonist XAC (CA200645, FRET acceptor) to terbium-labelled A1, A2a, A2b and A3 adenosine receptors (FRET donors) was detected by time-resolved FRET due to the close proximity of the donor and acceptor in a binding event. To investigate the ability of unlabelled test compounds to bind to Adenosine A1, A2a, A2b and A3 receptors, dose response curves were constructed that determined the ability of a range of concentrations to inhibit the binding of 30 nM CA200645 to the A2b receptor and 100 nM CA200645 to the A1, A2a, and A3 receptor.
Serial dilution (1:3 dilutions) of test compounds in neat DMSO and transfer of a 400 nL sample of test compound into the assay plate was carried out using the Mosquito (TTP Labtech, UK). The compound samples were incubated for 2 hours at room temperature with a fixed concentration of CA200645 defined for each receptor (see above) and CHO cell membranes containing the human Adenosine A1 (0.5 μg/well), A2a (0.3 μg/well), A2b (1 μg/well) or A3 (1 μg/well) receptor in 40 μL of assay buffer. Total and non-specific binding of CA200645 was determined in the absence and presence of 10 μM XAC, respectively. Following 2 hours incubation, the level of CA200645 binding was detected on a Pherastar FSX (BMG Labtech, Germany) using standard TR-FRET settings. The terbium donor was excited with three laser flashes at a wavelength of 337 nm, and donor and acceptor emission was detected at 620 nm and 665 nm wavelengths, respectively. FRET ratios were obtained by multiplying the acceptor/donor ratio value by 10,000. Specific binding was determined by subtracting the non-specific binding FRET ratio from the total binding FRET ratio. Compound IC50 curves were analysed using GraphPad Prism 7.0 (GraphPad, USA) and Ki affinity values were determined from the obtained IC50 values using the method of Cheng and Prusoff.

human PBMCs = test: CD3/CD28 stimulated IL-2 release NECA reversal assay in human PBMCs; type: cell-based; settings: PBMC, CD3/CD28 antibody stimulated, 1 uM NECA, 24 hours, IL-2 in culture supernatant;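 also: dose-response as % inhibition where 100% equals no-NECA control wells with CD3/CD28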
How it was run: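 PBMCs from citrated donor blood, 50,000 cells/well on plate-bound CD3 antibody (1 ug/ml), with 1 ug/ml CD28 antibody, 1 uM NECA and antagonist at 0.003-10 μM final. After 24 h at 37° C, supernatant IL-2 was measured by MSD immunoassay.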

[3] = test system: CD8+ T cells in human whole blood; test: Measurement of pCREB in CD8+ T cells in human whole blood; type: cell-based; settings: T-cell, 1 h; heparinised human whole blood, rolipram, 3 μM NECA, 60 min, phospho-CREB in CD8+ T cells by FACS
Protocol: Heparinised human whole blood was pre-incubated at 37° C. with serial dilutions of A2a antagonists for 20 min. and the phosphodiesterase inhibitor rolipram to amplify the pCREB response. The adenosine receptor agonist NECA is then added at a final concentration of 3 μM and following a 60 min incubation the blood is fixed and red blood cells lysed. White blood cells are isolated, permeabilized and stained with directly conjugated fluorescent antibodies to phospho-CREB (Alexa Fluor 488) and CD8 (Alexa Fluor 647) and the level of phospho-CREB in CD8+ T cells is measured by FACS using a BD Accuri C6 Flow Cytometer.

[4] = target: T3, human Adenosine A1 receptor (Homo sapiens, UniProt P30542); test: Adenosine receptor TR-FRET binding assay (CA200645 displacement), A1
T3 sequence (P30542 1-326): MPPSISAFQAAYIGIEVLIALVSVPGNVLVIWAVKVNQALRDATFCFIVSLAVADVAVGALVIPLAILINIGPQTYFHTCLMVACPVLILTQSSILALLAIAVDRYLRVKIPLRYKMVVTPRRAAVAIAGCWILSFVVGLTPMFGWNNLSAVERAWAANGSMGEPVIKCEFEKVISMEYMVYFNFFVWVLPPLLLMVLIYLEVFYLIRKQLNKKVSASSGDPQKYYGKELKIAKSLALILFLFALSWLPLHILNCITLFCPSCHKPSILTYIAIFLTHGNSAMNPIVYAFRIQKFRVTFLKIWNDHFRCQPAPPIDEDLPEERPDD

[5] = target: T4, human Adenosine A3 receptor (Homo sapiens, UniProt P0DMS8); test: Adenosine receptor TR-FRET binding assay (CA200645 displacement), A3
T4 sequence (P0DMS8 1-318): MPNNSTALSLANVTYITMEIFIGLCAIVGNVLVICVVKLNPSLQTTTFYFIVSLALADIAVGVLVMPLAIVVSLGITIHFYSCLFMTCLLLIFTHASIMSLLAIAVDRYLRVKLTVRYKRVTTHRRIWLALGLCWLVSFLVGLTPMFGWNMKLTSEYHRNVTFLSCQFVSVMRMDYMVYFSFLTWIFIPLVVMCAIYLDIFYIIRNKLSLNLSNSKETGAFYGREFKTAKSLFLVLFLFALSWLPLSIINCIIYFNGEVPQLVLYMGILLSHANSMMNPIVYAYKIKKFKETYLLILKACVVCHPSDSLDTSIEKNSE

T1 sequence (P29274 whole entry): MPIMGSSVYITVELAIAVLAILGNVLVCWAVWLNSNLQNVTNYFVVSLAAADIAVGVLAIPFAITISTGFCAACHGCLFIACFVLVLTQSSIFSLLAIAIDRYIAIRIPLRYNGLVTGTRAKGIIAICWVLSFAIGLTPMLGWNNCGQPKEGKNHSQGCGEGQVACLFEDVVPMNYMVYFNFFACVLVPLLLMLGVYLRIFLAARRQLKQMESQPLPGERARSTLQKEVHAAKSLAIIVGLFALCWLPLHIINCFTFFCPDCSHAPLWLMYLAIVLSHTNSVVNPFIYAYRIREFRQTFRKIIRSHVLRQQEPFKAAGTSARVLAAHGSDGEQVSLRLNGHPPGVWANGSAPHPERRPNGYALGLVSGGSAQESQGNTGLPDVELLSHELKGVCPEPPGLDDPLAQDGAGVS

Row | SMILES | Ki [1] [nM] | Ki [2] [nM] | IC50 (human PBMCs) [nM] | IC50 [3] [nM] | Ki [4] [nM] | Ki [5] [nM]
1 | CO[C@H]1CN(C)C[C@@H]1NC(=O)c1ccn2nc(-c3cccc(C#N)c3)c(-c3cc(C)nc(Cl)c3)c2n1 [Example 6.14, 3-(2-Chloro-6-methyl-4-pyridyl)-2-(3-cyanophenyl)-N-[(3S,4S)-4-methoxy-1-methyl-pyrrolidin-3-yl]pyrazolo[1,5-a]pyrimidine-5-carboxamide] | 1.1 | 60 | 18 | 370 | 231 | > 1000
2 | Cc1cc(-c2c(-c3cccc(C#N)c3)nn3ccc(C(=O)NC[C@@H](O)CO)nc23)cc(Cl)n1 [Example 6.15, 3-(2-Chloro-6-methyl-4-pyridyl)-2-(3-cyanophenyl)-N-[(2R)-2,3-dihydroxypropyl]pyrazolo[1,5-a]pyrimidine-5-carboxamide] | 0.7 | 3 | 14 | 240 | 115 | > 1000
3 | Cc1cc(-c2c(-c3cccc(C#N)c3)nn3ccc(C(=O)N(C)CC(C)(C)O)nc23)cc(Cl)n1 [Example 6.18, 3-(2-Chloro-6-methyl-4-pyridyl)-2-(3-cyanophenyl)-N-(2-hydroxy-2-methyl-propyl)-N-methyl-pyrazolo[1,5-a]pyrimidine-5-carboxamide] | 4.2 | 13 | 93 | 1690 | 125 | > 1000
4 | Cc1cc(-c2c(-c3cccc(C#N)c3)nn3ccc(C(=O)N[C@H]4C[C@H](O)C4)nc23)cc(Cl)n1 [Example 6.19, 3-(2-Chloro-6-methyl-4-pyridyl)-2-(3-cyanophenyl)-N-(trans-3-hydroxycyclobutyl)pyrazolo[1,5-a]pyrimidine-5-carboxamide] | 0.3 | 22 | 26 | 470 | 456 | > 1000
5 | Cc1cc(-c2c(-c3cccc(C#N)c3)nn3ccc(C(=O)N[C@H]4C[C@@H](O)C4)nc23)cc(Cl)n1 [Example 6.20, 3-(2-Chloro-6-methyl-4-pyridyl)-2-(3-cyanophenyl)-N-(cis-3-hydroxycyclobutyl)pyrazolo[1,5-a]pyrimidine-5-carboxamide] | 0.7 | 19 | 36.3 | 560 | 204 | > 1000
6 | Cc1cc(-c2c(-c3cccc(C#N)c3)nn3ccc(C(=O)NC(C)(C)C#N)nc23)cc(Cl)n1 [Example 6.21, 3-(2-Chloro-6-methyl-4-pyridyl)-N-(1-cyano-1-methyl-ethyl)-2-(3-cyanophenyl)pyrazolo[1,5-a]pyrimidine-5-carboxamide] | 0.1 | 17 | 1.3 | 430 | 252 | > 1000
7 | Cc1cc(-c2c(-c3cccc(C#N)c3)nn3ccc(C(=O)NC(C)(C)CO)nc23)cc(Cl)n1 [Example 6.22, 3-(2-Chloro-6-methyl-4-pyridyl)-2-(3-cyanophenyl)-N-(2-hydroxy-1,1-dimethyl-ethyl)pyrazolo[1,5-a]pyrimidine-5-carboxamide] | 0.1 | 5 | 2.5 | 100 | 61 | 1910
8 | Cc1cc(-c2c(-c3cccc(C#N)c3)nn3ccc(C(=O)NC(C)(C)C(C)(C)O)nc23)cc(Cl)n1 [Example 6.23, 3-(2-Chloro-6-methyl-4-pyridyl)-2-(3-cyanophenyl)-N-(2-hydroxy-1,1,2-trimethyl-propyl)pyrazolo[1,5-a]pyrimidine-5-carboxamide] | 0.4 | 74 | 5.7 | 330 | 223 | > 1000
9 | Cc1cc(-c2c(-c3cccc(C#N)c3)nn3ccc(C(=O)NCCC(C)(C)N)nc23)cc(Cl)n1 [Example 7, N-(3-Amino-3-methyl-butyl)-3-(2-chloro-6-methyl-4-pyridyl)-2-(3-cyanophenyl)pyrazolo[1,5-a]pyrimidine-5-carboxamide] | 0.4 | 5 | 34 | 280 | 143 | > 1000
10 | Cc1cc(-c2c(-c3cccc(C#N)c3)nn3ccc(C(=O)N[C@H]4CNC[C@H]4O)nc23)cc(Cl)n1 [Example 7.2, 3-(2-Chloro-6-methyl-4-pyridyl)-2-(3-cyanophenyl)-N-[cis-(3S,4R)-4-hydroxypyrrolidin-3-yl]pyrazolo[1,5-a]pyrimidine-5-carboxamide] | 2.6 | 3 | 70 | 1070 | 458 | > 1000
11 | Cc1cc(-c2c(-c3cccc(C#N)c3)nn3ccc(C(=O)NC(C)(C)CN)nc23)cc(Cl)n1 [Example 7.3, N-(2-Amino-1,1-dimethyl-ethyl)-3-(2-chloro-6-methyl-4-pyridyl)-2-(3-cyanophenyl)pyrazolo[1,5-a]pyrimidine-5-carboxamide] | 2.9 | 15 | 172 | 1800 | 44 | > 1000
12 | Cc1cc(-c2c(-c3cccc(C#N)c3)nn3ccc(C(=O)N[C@H](C)[C@H](O)CO)nc23)cc(Cl)n1 [Example 7.9, 3-(2-Chloro-6-methyl-4-pyridyl)-2-(3-cyanophenyl)-N-[(1 R,2S)-2,3-dihydroxy-1-methyl-propyl]pyrazolo[1,5-a]pyrimidine-5-carboxamide] | 0.6 | 2 | 4 | 70 | 160 | > 1000
13 | Cc1cc(-c2c(-c3cccc(C#N)c3)nn3ccc(C(=O)N[C@H]4CC[C@H](N)C4)nc23)cc(Cl)n1 [Example 7.14, 3-(2-Chloro-6-methyl-4-pyridyl)-2-(3-cyanophenyl)-N-[(1S,3S)-3-aminocyclopentyl]pyrazolo[1,5-a]pyrimidine-5-carboxamide] | 2.8 | 32 | 142 | 1930 | 249 | > 1000
14 | Cc1cc(-c2c(-c3cccc(C#N)c3)nn3ccc(C(=O)NCC4(C)CCCNC4)nc23)cc(Cl)n1 (stereo not drawn) [Example 7.18, 3-(2-Chloro-6-methyl-4-pyridyl)-2-(3-cyanophenyl)-N-[(3-methyl-3-piperidyl)methyl]pyrazolo[1,5-a]pyrimidine-5-carboxamide] | 1 | 14 | 19 | 470 | 20 | > 1000
15 | Cc1cc(-c2c(-c3cccc(C#N)c3)nn3ccc(C(=O)N[C@@H](C)[C@H](O)CO)nc23)cc(Cl)n1 [Example 7.19, 3-(2-Chloro-6-methyl-4-pyridyl)-2-(3-cyanophenyl)-N-[(1S,2S)-2,3-dihydroxy-1-methyl-propyl]pyrazolo[1,5-a]pyrimidine-5-carboxamide] | 0.1 | 4 | 4 | 100 | 20 | 1410
16 | Cc1cc(-c2c(-c3cccc(C#N)c3)nn3ccc(C(=O)NCC(C)(C)O)nc23)cc(C)n1 [Example 10, 2-(3-Cyanophenyl)-3-(2,6-dimethyl-4-pyridyl)-N-(2-hydroxy-2-methyl-propyl)pyrazolo[1,5-a]pyrimidine-5-carboxamide] | 0.4 | 19 | 6 | 80 | 236 | > 1000
